In patent publication US6537797B1, “Compositions and methods useful in bioremediation of polychlorinated biphenyls” (Indiana University, Advanced Research and Technology …, priority 1999, dated 2003):
Entries after “also recorded” stand apart in the source; their conditions may differ.

Key:
Assay type in all cases: cell-based
bacterial strain SK-2 [1] = assay: Growth of SK-2 on 3,4-DCBP as sole carbon source and its degradation
Description: Growth of bacterial strains SK-1 and SK-2 on 2,3-DCBP and 3,4-DCBP, respectively, as a sole carbon source was determined using direct counting and an acridine orange staining method. This method involves filtering 0.1 milliliters of culture through a 0.45 micron filter, staining the cells on the filter using a 0.01% acridine orange solution for 3 to 5 minutes, and counting cells on the filter using an epifluorescent microscope at a 1000′ magnification. SK-1+ contained 2,3-dichlorobiphenyl; SK-2+ contained 3,4-dichlorobiphenyl. Control bottles in each case were identical to experimental bottles in that they were inoculated with the cultures but they lacked the appropriate congener. The initial concentration of PCBs was 500 ppm (w/v). The cell numbers of the two isolates increased by 1.5 orders of magnitude in the presence of the DCBPs used as a growth substrate. The degradation of 2,3-DCBP by SK-1 and production of 2,3-dichlorobenzoate is depicted in FIG. 3. The degradation of 3,4-DCBP by SK-2 and production of 3,4-dichlorobenzoate is depicted in FIG. 4.
(§1) The concentrations of chlorobenzoates and dichlorobiphenyls were assessed after hexane extraction of bottles using gas chromatography analysis of the extracts with an electron capture detector. Chlorobenzoates were analyzed using standard columns after derivitization with pentafluorobenzyl bromide. Dichlorobiphenyls were analyzed using a DB-5 column (J&W Scientific, Fulsom, Calif.).
The data shown in FIGS. 2, 3 and 4 illustrates the nearly complete disappearance of both 2,3-DCBP (0.38 mM initial concentration, FIG. 3) and 3,4-DCBP (0.3 mM initial concentration, FIG. 4) within 10 days of incubation. Duplicate bottles were used and error bars of the pictures represent a standard deviation. Controls contained DCBPs but lacked inoculum. DCBPs were supplied in the bottles using the non-biodegradable carrier heptamethylnonane (HMN).

bacterial strain SK-4 [2] = assay: Growth substrate tests in liquid medium; conditions: initial concentration 100 parts per million, except chlorobenzoate 2-3 millimolar
Description: (§2) The ability of the four isolated strains to grow on selected polychlorobiphenyls as a sole carbon source was assessed.
(§3) (All tests were conducted in a liquid medium. The initial concentration of the organic substrate was 100 parts per million, except chlorobenzoate, which was 2-3 millimolar).

bacterial strain SK-3 [3] = assay: Growth substrate tests in liquid medium; conditions: initial concentration 100 parts per million, except chlorobenzoate 2-3 millimolar
Description: as §2, §3

bacterial strain SK-3 [4] = assay: Biodegradation of commercial PCB mixture Aroclor 1242 as sole carbon source; conditions: 12 days; benzoate-grown washed cells; no cosubstrate; GC
Description: In addition to testing the ability to use a single PCB congener as a sole carbon source (as described in Example 1), several strains of the isolated bacteria of the invention (SK-1, SK-2, SK-3 and SK-4) were tested for the ability to degrade low chlorinated PCB congeners (dichlorobiphenyls and trichlorobiphenyls) of a commercial PCB mixture in the absence of biphenyl or any other cometabolic substrate as a carbon source.
The ability of SK-1, SK-2, SK-3 and SK-4 to degrade Aroclor® 1242 was assessed using cells which were grown on benzoate and then washed. Briefly, the cells were washed by centrifuging the cells, decanting the supernatant, resuspending the cells in fresh medium, then pelleting the cells using centrifugation again and decanting the supernatant to remove residual benzoate and other carbon sources. Aroclor® 1242 was the sole carbon source provided to the cells.
The degradation of Aroclor® 1242 by SK-3 was monitored using gas is chromatography analysis and the results are depicted in FIG. 12. […] The degraded PCB congeners were identified as follows: Peak #1 was 2,5-DCBP or 2,4-DCBP; Peak #2 was 2,3′-DCBP; and Peak #3 was 2,4′-DCBP. No significant degradation of any PCB congener containing three or more chlorine atoms was observed.

bacterial strain SK-1 = assay: Growth substrate tests in liquid medium; conditions: initial concentration 100 parts per million, except chlorobenzoate 2-3 millimolar
Description: as §2, §3

bacterial strain SK-2 [5] = assay: Growth substrate tests in liquid medium; conditions: initial concentration 100 parts per million, except chlorobenzoate 2-3 millimolar
Description: as §2, §3

bacterial strain SK-3 [6] = assay: Characterization of SK-3: growth on and degradation of chlorobiphenyls and chlorobenzoates
Description: as §1
The results from this experiment are depicted in FIG. 5.
The growth of SK-3 on 4-chlorobiphenyl (4-CB) was compared with growth on its non-chlorinated form, biphenyl. […] The results from this experiment are depicted in FIG. 6. The concentration of chloride ion was determined using ion chromatography on a standard Dionex ion chromatography column. The concentration of 4-CB was assessed after hexane extraction of bottles by analyzing the hexane extracts using gas chromatography on a DB-5 column (J&W Scientific, Fulsom, Calif.) and an electron capture detector.
The growth of SK-3 on chlorobenzoates was assessed. […] The results from this experiment are depicted in FIG. 7.
The degradation of three different monochlorobiphenyls, (2-CB, 3-CB, and 4-CB) by SK-3 was assessed at 23° C. under aerobic conditions on a shaker table. After incubation of SK-3 with the selected monochlorobiphenyl for 88 hours, the concentrations of chloride and the corresponding chlorobenzoic acids (CBA) was assessed as described herein. The results from this experiment are depicted in FIG. 8.
The growth of SK-3 on dichloro-biphenyls was also assessed. […] The results of this experiment are depicted in FIG. 9.

bacterial strain SK-4 [7] = assay: Characterization of SK-4: growth on and degradation of 2,2′-DCBP and 2,4′-DCBP
Description: The same methods for determining concentrations of analytes and for the incubation of the bacterial strain with growth substrate described herein for the previous analyses were used in the experiments to characterize SK-4. The concentration of SK-4 cells in the experiments was 1.5×10^7 cells per milliliter and the concentration of 2,2′-DCBP or 2,4′-DCBP was 100 milligrams per liter. […] Ortho-substituted congeners are common degradation products of anaerobic reductive dechlorination of more highly chlorinated PCBs (PCBs comprising more than two chlorine atoms) by anaerobic bacteria.
2,2′-DCBP was supplied at a concentration of 100 milligrams per liter dissolved in heptamethyl nonane (HMN), a non-biodegradable PCB solvent. Controls contained HMN but lacked 2,2′-DCBP.

[8] = 1.5×10^7 cells per milliliter, substrate in heptamethyl nonane

O=C(O)c1ccc(Cl)c(Cl)c1 [3,4-dichlorobenzoate]
Time at which concentration of chlorobenzoate produced from 3,4-DCBP by SK-2 reached a maximum, then decreased (bacterial strain SK-2 [1]; 0.3 mM 3,4-DCBP initial concentration): 90 h | Growth of SK-4 on the substrate as sole carbon source (bacterial strain SK-4 [2]): No | Growth of SK-3 on the substrate as sole carbon source (bacterial strain SK-3 [3]): No

Clc1cccc(-c2ccccc2Cl)c1 [2,3′-DCBP]
Degradation of PCB congeners of Aroclor 1242 by SK-3 (bacterial strain SK-3 [4]): degraded | Growth of SK-4 on the substrate as sole carbon source (bacterial strain SK-4 [2]): No | Growth of SK-3 on the substrate as sole carbon source (bacterial strain SK-3 [3]): No | Growth of SK-1 on the substrate as sole carbon source (bacterial strain SK-1): No | Growth of SK-2 on the substrate as sole carbon source (bacterial strain SK-2 [5]): No

Clc1ccc(-c2ccccc2)cc1Cl [3,4-DCBP, 3,4-dichlorobiphenyl]
Time to nearly complete disappearance (bacterial strain SK-2 [1]; SK-2, 0.3 mM initial concentration, supplied in heptamethylnonane): ≤ 10 days | Increase of cell numbers in the presence of the DCBP as growth substrate (bacterial strain SK-2 [1]; SK-2, initial concentration 500 ppm (w/v), acridine orange direct counting): 1.5 orders of magnitude | Growth of SK-4 on the substrate as sole carbon source (bacterial strain SK-4 [2]): No | Growth of SK-3 on the substrate as sole carbon source (bacterial strain SK-3 [3]): No | Growth of SK-1 on the substrate as sole carbon source (bacterial strain SK-1): No | Growth of SK-2 on the substrate as sole carbon source (bacterial strain SK-2 [5]): exhibited growth and Yes

Clc1ccc(-c2ccccc2Cl)cc1 [2,4′-DCBP, 2,4′-dichlorobiphenyl]
Degradation of PCB congeners of Aroclor 1242 by SK-3 (bacterial strain SK-3 [4]): degraded | Growth of SK-4 on the substrate as sole carbon source (bacterial strain SK-4 [2]): exhibited growth and Yes | Growth of SK-3 on the substrate as sole carbon source (bacterial strain SK-3 [3]): exhibited growth and Yes | Growth of SK-1 on the substrate as sole carbon source (bacterial strain SK-1): Yes | Growth of SK-2 on the substrate as sole carbon source (bacterial strain SK-2 [5]): Unlikely | Growth of SK-3 on the substrate as sole carbon source (bacterial strain SK-3 [6]): able to grow | Doubling time of SK-3 grown on the substrate (bacterial strain SK-3 [6]; concentration 0.27 mM, sole carbon source): approximately 43 hours | Extent of chloride production by SK-3 (bacterial strain SK-3 [6]; growth on 0.27 mM 2,4′-DCBP): 0.49 mM | Production of chlorobenzoates (2-CBA, 4-CBA) during growth of SK-3 (bacterial strain SK-3 [6]; growth on 2,4′-DCBP): not detected | Growth of SK-4 on the substrate as sole carbon source (bacterial strain SK-4 [7]; 1.5×10^7 cells per milliliter, 100 milligrams per liter): growth; also recorded: ability to grow rapidly | Chloride release on degradation by SK-4 (bacterial strain SK-4 [7]; [8]): production of chloride | Chlorobenzoate production on degradation by SK-4 (bacterial strain SK-4 [7]; [8]): stoichiometric accumulation of a chlorobenzoate | Doubling time of SK-4 grown on the substrate (bacterial strain SK-4 [7]; concentration 0.42 mM, sole carbon source): ~17 h
